# Experimental data taken from ChEMBL document CHEMBL3507680, “University of Dundee, Gates Library screen for HepG2 cell viability”.
# Test: Human HepG2 cell viability assay in 384 well format
# Assay type: toxicity, cell-based
# Design: dose 125 nL, time 70.5 hour; concentration not given beside the values
# Conditions: HepG2 cells, read-out: Inhibition
row,Compound,cytotoxicity at 70.5 h
1,Fc1cnc(N2CCOCC3(CCCN(c4cnccn4)C3)C2)nc1 (stereo not given),-3.83%
2,Cc1nn2cccnc2c1C(=O)N1CCCC(n2ccnc2)C1 (stereo not given),-4.78%
3,Cc1ccc(OCC(=O)NC2CCN(S(C)(=O)=O)CC2)cc1,-1.26%
4,Cc1cc(NC(=O)NCCC(=O)N2CCCc3ccccc32)no1,-6.7%
5,Cn1cc(CCCNC(=O)NCC(O)c2ccsc2)cn1 (stereo not given),-2.64%
6,CCn1cc(NC(=O)C2CCN(Cc3ccccc3)CC2)cn1,2.21%
7,CC(Sc1nnnn1C1CCOCC1)C(=O)NC1CCCCC1 (stereo not given),-3.49%
8,CC(NS(=O)(=O)CCc1ccccn1)c1ccccc1Br (stereo not given),33.3%
9,O=C1OCCN1CCNC(=O)C1(N2CCCCC2)Cc2ccccc2C1,-7.56%
10,CCN1CCCCC1C(=O)Nc1cccc(-c2nnc[nH]2)c1 (stereo not given),-0.846%
11,Cc1cnn(C2CCCN(C(=O)c3ccnc(-n4cncn4)c3)C2)c1 (stereo not given),-7.22%
12,Cc1noc(C)c1-c1ccc(C2CCCN2C(=O)c2ccncn2)nc1 (stereo not given),27.1%
13,Cc1nn(C)cc1S(=O)(=O)N[C@@H]1CC[C@@H](n2ccnc2C)[C@@H]1O,17.7%
14,COc1cccc(N2CCN(C(=O)CCO)CC2=O)c1,-8.46%
15,O=C(c1ccccc1)N1C[C@@H]2CCCO[C@@H]2[C@H](N2CCCC2)C1,-4.22%
16,Cc1sc(Oc2ccccc2Cl)nc1C(=O)O,7.28%
17,O=C(C1CCC1)N1CCC2(CCNCC2)C1,13.3%
18,CN1CCCC(CCC(=O)N2CCc3sc(C(=O)N(C)C)cc3C2)C1 (stereo not given),-5.77%
19,CCCn1cc(CN2CCOCC2c2[nH]ncc2C)cn1 (stereo not given),-2.99%
20,CC(=O)N1CCN(c2cc(C3CCNCC3)ccn2)CC1,-1.18%
21,CCOc1ccc(CNC2CCCN(c3cccnn3)C2)cc1OC (stereo not given),4.96%
22,O=C(NC[C@H]1OC[C@@H](NC2CCC(F)(F)CC2)[C@@H]1O)c1cccs1,-5.94%
23,Cc1ccnc(C(=O)N2C[C@@H]3CN(S(C)(=O)=O)CCO[C@@H]3C2)c1,18%

row,Compound,cytotoxicity at 70.5 h
1,COCC1c2nnn(C)c2CCN1C(=O)CCc1cccc(OC)c1 (stereo not given),-3.47%
2,Cc1nc2n(n1)CC(NCc1ccc(Cl)c3cccnc13)CC2 (stereo not given),-8.23%
3,CCN(Cc1ccccc1O)CC1(C)Cc2c(N)nc(N)nc2O1 (stereo not given),-3.26%
4,Cc1cnc(N2CCC3(CC2)CC3CNC(=O)N(C)C)nc1 (stereo not given),-6.55%
5,O=c1c2sccc2ncn1Cc1cc(C2CC2)[nH]n1,-8.84%
6,CNC(=O)CN(C)c1cncc(OCc2ccccc2)n1,8.53%
7,Cc1nnsc1C(=O)NCCNS(=O)(=O)c1cccs1,6.87%
8,Cc1ccc(C(CNCc2nccn2C)N2CCOCC2)s1 (stereo not given),-2.09%
9,Cc1nc(O)c2nnn(C[C@H]3CCCN3C(=O)c3ccccc3C)c2n1,11.5%
10,COc1ccc(CNC(C)c2cccc(Cl)c2)c(OC)c1OC (stereo not given),-0.149%
11,Cc1cccnc1CC(C)NC1Cc2ccccc2C1 (stereo not given),5.92%
12,CCN(C)C[C@@H]1CN(Cc2cnc3c(S(C)(=O)=O)cnn3c2)C[C@@H]1CO,1.07%
13,COc1cc(S(=O)(=O)Nc2cn[nH]c2)ccc1Br,-12.7%
14,CC(=O)N1CCCC(C(=O)NCCOc2cc(C)cc(C)c2)C1 (stereo not given),18%
15,CC1(C)CC2(CCO1)NC(=O)c1cc(Br)ccc1-n1nnnc12 (stereo not given),1.03%
16,NC(=O)CCn1cc(CNCCCc2csc(N)n2)c2ccccc21,-6.3%
17,O=C1[C@@H]2CCN(Cc3ccoc3)C[C@@H]2OCCN1c1ccccc1,-10.9%
18,CN(Cc1ccco1)C[C@H]1OC[C@@H]2CCN(Cc3cccnc3)C[C@@H]21,-7.43%
19,Cc1ncnc2c1CCN(C(=O)c1cccn1C)CC2,-5.38%
20,CCC(CO)N(Cc1ccc(C(=O)O)cc1)Cc1ccsc1 (stereo not given),-5.5%
21,Cc1ccccc1S(=O)(=O)N1CCc2c(ncnc2N(C)C)C1,0.46%
22,O=c1cc(Cn2ccnc2)nc2n1CCCN(Cc1ccco1)C2,-5.53%
23,CCN(CC(F)(F)F)C(=O)C1CCCN(Cc2ccccn2)C1 (stereo not given),-3.97%

row,Compound,cytotoxicity at 70.5 h
1,Cc1nc(C)n(C2CCCN(C(=O)c3csc(C(C)C)n3)C2)n1 (stereo not given),23.9%
2,F[C@@H]1CN(CC2CC2)C[C@@H]1OCc1nc2ccccc2o1,-1.13%
3,COc1cc(OC)cc(-c2noc(C(N)CCSC)n2)c1 (stereo not given),-2.69%
4,Cc1c(C(=O)N2CCC(C(O)c3ccc(Cl)cc3)CC2)cnn1C (stereo not given),-3.74%
5,CCc1cnc(NCCSc2cnn[nH]2)nc1,28.2%
6,CN(Cc1ccc(F)cc1)C(=O)CN1CCCC(Cn2cncn2)C1 (stereo not given),3.89%
7,O=C(c1ccc[nH]1)N1CCn2cc(Cn3cccn3)nc2C1,-8.4%
8,COc1cccc(OCC(=O)NCc2ccc3[nH]c(=O)[nH]c3c2)c1,-13.7%
9,CSCCC(=O)N1CCc2c(ncnc2N2CCOCC2)C1,-2.83%
10,O=C(COC1CCCC1)NCCCn1nc2ccccn2c1=O,-16.2%
11,CC(=O)N1CCc2[nH]cnc2C12CCN(C(=O)CCn1cccn1)CC2,1.39%
12,COc1c(C2CCCN2CC(=O)N(C)c2nccs2)c(C)nn1C (stereo not given),0.589%
13,CN1CCOC(CNCc2coc(-c3ccccc3Cl)n2)C1 (stereo not given),1.39%
14,NC(=O)CN(Cc1ccc(Br)cc1)C(=O)c1cccnc1,-3.52%
15,CCOc1cccc(C2CC(=O)NCc3nc(N)sc32)c1 (stereo not given),-11.2%
16,CCn1cnnc1C1CCN(C(=O)CC(C)n2cccc2)CC1 (stereo not given),-1.21%
17,Cc1ncc(Cl)c(C(=O)N2CCCC(n3nc(C)nc3C)C2)n1 (stereo not given),-6.14%
18,O=C(CN1CCOC(Cn2cccn2)C1)Nc1cccnc1 (stereo not given),31.9%
19,CN(C)CC(=O)N1Cc2nc(C(=O)NCc3ccccc3)oc2C1,13%
20,COCCC(C)NC(=O)N1CCSC(C)(C)C1 (stereo not given),-10.1%
21,CC(Cn1ccnc1)NC(=O)C1(c2ccc(F)cc2)CC1 (stereo not given),-8.11%
22,CCc1cnc(N2CCN(Cc3ccncc3)CC2)s1,-3.17%
23,Cc1cc(C)cc(CN2C[C@H]3COC[C@H](N4CCN(C)CC4)[C@H]3C2)c1,-6.19%

row,Compound,cytotoxicity at 70.5 h
1,N#Cc1ccc(C(=O)NS(=O)(=O)c2ccc(C#N)c(Cl)c2)cc1,-8.83%
2,Cc1nc(CCN(C)C(=O)C2COc3ccccc3C2)no1 (stereo not given),17.3%
3,CCc1ccc(CN(C)c2ccc(-c3nc(COC)no3)cn2)nc1,-4.59%
4,CNC(=O)CN1CCC(OCc2ccc(Cl)c(Cl)c2)CC1,3.41%
5,Cc1ccc(C(=O)N2CCc3ncnc(C)c3CC2)o1,9.18%
6,COCCOc1ccccc1C(=O)N1CCCC(c2cc(C)[nH]n2)C1 (stereo not given),0.71%
7,CCCn1cc(C(=O)NCCc2ccc3c(c2)OCO3)c(C)n1,-4.51%
8,Cc1cccc(CN2C(=O)OCC2CO)c1F (stereo not given),14.6%
9,O=C(c1cnccn1)N1CCC2(CC1)CCN(Cc1ccccn1)C2=O,19.9%
10,COCC[C@]1(O)CCN(Cc2ccccn2)C[C@H]1C,-0.199%
11,CCC1CC(=O)NCc2nc3sc(C)cn3c21 (stereo not given),-4.35%
12,COCC1CN(c2ncc(F)cn2)Cc2cnn(C)c21 (stereo not given),-4.56%
13,Cc1cnn(CC2CCCN2C(=O)c2cn(-c3ccccc3)nc2C)c1 (stereo not given),6.33%
14,CC(C)NC(=O)C1CN(C(=O)N2CCCC2)CC12CCOCC2 (stereo not given),-1.86%
15,CCNC(=O)Cc1ccc(NC(=O)NC(CC)c2ccncc2)cc1 (stereo not given),-2.39%
16,OC1(Cn2ccc3ncccc32)CCN(Cc2cccs2)CC1,-0.455%
17,Cn1nc(COCC2CC2)c2c1CCN(Cc1cccs1)C2,-4.53%
18,COc1cc(OC)cc(N2CCC(NCc3cccs3)C2=O)c1 (stereo not given),-0.0615%
19,N#Cc1ccc(CS(=O)(=O)NC(=O)c2ccc3c(c2)COC3)cc1,14.9%
20,COCCN1C(=O)C[C@H]2[C@H]1CCN2Cc1cccc(C#N)c1,-19.1%
21,CC[C@H](C)Cn1nc(C2CCNCC2)n(Cc2ccccc2)c1=O,-2.63%
22,CCNC(=O)c1ccnc(N2CCCC(COc3ccccc3C)C2)c1 (stereo not given),-21.9%
23,Cn1cnc(S(=O)(=O)NCCCN2CCCCCC2)c1Cl,-6.45%

row,Compound,cytotoxicity at 70.5 h
1,CCOc1ccc(C(F)(F)F)cc1NC(=O)NCc1noc(C)n1,-8.58%
2,O=C(CCc1ccco1)Nc1ncn(CC(=O)N2CCCCCC2)n1,-2.03%
3,CC(=O)N1CCc2nc(-c3ccc(F)cc3)nc(NC(C)C)c2CC1,7.5%
4,Cc1nc(CCCNC(=O)c2c(F)cc(F)cc2F)n[nH]1,-7.17%
5,COc1ccc(OC)c(C(C)NC(=O)Nc2nnc(C)s2)c1 (stereo not given),-5.29%
6,O=C(CCNCc1cc(O)c2cc(F)ccc2n1)N1CCCC1,-8.32%
7,Cc1cc(C(=O)NCC(O)CN2CCCC2=O)ccc1F (stereo not given),-4.58%
8,COc1cc(C)c(C)cc1S(=O)(=O)N(C)CC(=O)Nc1ccon1,-15.2%
9,Cc1cc(N2CCc3c(ncn3C)C2)nc(N)n1,-0.513%
10,COc1ccc2nnc(C(=O)NCC3CCCC3)nc2c1,-4.54%
11,Cc1cc(N2CCCCC2Cn2nc(C)cc2C)n2ncnc2n1 (stereo not given),-4.18%
12,CC(C)C1CN(c2cccc(C#N)n2)CCCN1CC1CC1 (stereo not given),-11.5%
13,O=C(c1ncccn1)N1CCC2(CC1)COC(COc1ccccn1)C2 (stereo not given),10.9%
14,CC(C)NC(=O)C(C)S(=O)(=O)c1cc2c(cc1Cl)OCCO2 (stereo not given),-7.06%
15,Cn1c(C2CCCN2C(=O)CN2CCCC2=O)nc2ccccc21 (stereo not given),-3.63%
16,COCC(=O)N1CCC2(CC(=O)N(c3cccc(F)c3)C2)C1 (stereo not given),-9.01%
17,COc1c(C2CCCN2C(=O)c2ccc(N(C)C)nn2)c(C)nn1C (stereo not given),-8.95%
18,O=C(C1CCCCC1)N1CCO[C@@H]2CNC[C@@H]21,-2.15%
19,Cc1ncc(S(C)(=O)=O)c(N(C)CCCc2cnn(C)c2)n1,-3.73%
20,O=C(C1CCCS1)N1CCOc2cccc(F)c21 (stereo not given),-3.7%
21,CC(C)C(=O)N1CCCc2c(cnn2-c2ccccc2)C1,-5.24%
22,Cc1cccc2nc(CN3CCC(Cn4ccnn4)CC3)cc(=O)n12,-3.54%
23,CCN(CC)CC(=O)Nc1ccc(-n2ccc(C(N)=O)n2)cc1,25.3%
